Results as given in paper PMC7571124 (Molecules, 2020).
Like-named read-outs stand apart in the source and are kept apart here. Residues, ends and D or L forms follow the SMILES beside them.

Columns and labels:
[1] = tested on: avian influenza A A/CHK/MX/1994 H5N2 virus; assay: microbe, parasite or virus in culture; assay type: cell-based; details: for IC50: read-out: IC50 of viral replication inhibition
[2] = target: neuraminidase of A/CHK/MX/1994 H5N2 (Influenza A virus, UniProt Q0A2F2); assay type: biochemical, Influenza A virus A/Chicken/Mexico/31381-7/1994 (H5N2)
[3] = in vitro; details: dog
[4] = target: T1, neuraminidase of A/PR/8/34 H1N1 (Influenza A virus, UniProt P03468); assay: biochemical; assay type: biochemical, Influenza A virus A/Puerto Rico/8/34 (H1N1)
T1 construct: Samples of cell supernatant infected with whole virus were used as source of enzymes; host or cells: MDCK cells infected with the virus; clarified culture supernatant

[5] = tested on: MDCK cells; details: dog

Compound: 3-(propylaminosulfonyl)-4-chlorobenzoic acid [STL]
- inhibition of viral replication (lytic plaques) ([1]; at 100 μM): losing this effect
- inhibition of viral replication (lytic plaques) ([1]; at 1 mM): completely inhibited
- IC50 [2]: 24.8 ± 1.3 mM

Compound: CSCCC(NC(=O)C(Cc1ccccc1)NC(C)=O)C(=O)O (stereo not drawn) [AAMOL, N-acetylphenylalanylmethionine] (Ac-Phe-Met-OH; configuration not given here)
- CC50 [3]: 0.016 ± 0.0015 mM
- inhibition of viral replication (lytic plaques) ([1]; at 1 μM): no inhibition effect was observed
- inhibition mechanism [2]: competitive
- IC50 [4]: 57 ± 1.1 mM
- Ki [4]: 15.3 mM
- inhibition mechanism [4]: competitive

Compound: O=C1O[C@H]([C@@H](O)CO)C(O)=C1O [CIV, ascorbic acid]
- CC50 [3]: 0.0003 mM
- inhibition of viral replication (lytic plaques) ([1]; at 1 μM): no inhibition effect was observed
- inhibition mechanism [2]: noncompetitive
- IC50 [4]: 32 ± 1.5 mM
- Ki [4]: 26.4 mM
- inhibition mechanism [4]: noncompetitive
- CC50 [5]: 0.00055 ± 0.0011 mM

Compound: Cc1ccc(C)c(NC(=O)CC(C(=O)O)N2CCNCC2)c1 (stereo not shown) [FMOL, propanoic 3-[(2,5-dimethylphenyl)carbamoyl]-2-(piperazin-1-yl) acid]
- inhibition of viral replication (lytic plaques) ([1]; at 100 μM): affected the size and number of plaques
- inhibition of viral replication (lytic plaques) ([1]; at 1 mM): affected the size and number of plaques

Compound: CC(=O)N[C@H]1[C@H]([C@H](O)[C@H](O)CO)O[C@@](Oc2ccc3c(C)cc(=O)oc3c2)(C(=O)O)C[C@@H]1O [MUNANA, 2′-O-(4-methylumbelliferyl)-α-dN-acetylneuraminic acid]
- Km [2]: 106 µM
- Vmax [2]: 5.2 µmol/min
- Km [4]: 142 µM
- Vmax [4]: 2.77 µmol/min

Compound: CCCN(CCC)S(=O)(=O)c1ccc(C(=O)O)cc1 [ORP, 4-(dipropylsulfamoyl) benzoic acid]
- IC50 ([1]; Influenza A virus, H5N2, MDCK, in Canis lupus familiaris): 0.157 mM
- inhibition of viral replication (lytic plaques) ([1]; at 1 mM): only lowered the number of plaques
- inhibition mechanism [2]: competitive
- IC50 [4]: 23 ± 1.2 mM
- Ki [4]: 10.5 mM
- inhibition mechanism [4]: competitive

Compound: CC(=O)N[C@H]1[C@H]([C@H](O)[C@H](O)CO)OC(C(=O)O)=C[C@@H]1N=C(N)N [Zanamivir, zanamivir]
- lytic plaque formation [1]: not detected
- IC50 [1]: 0.000741 mM
- inhibition mechanism [2]: competitive
